“Also recorded” adds a separate entry of the source. Structures can show the parent of a compound that is named as a salt.
Experiments:
[1] = Solubility of rosiglitazone salts in 0.1 M hydrochloric acid (Example 7); type: physicochemical; conditions: 1 g salt
Description: Contrary to some other salts of rosiglitazone, the above-described crystalline salt of formula III is well soluble in water and in aqueous solutions of hydrochloric acid. Especially the solubility in solutions of hydrochloric acid is very important considering the acidobasic conditions in the digestive system (especially in the stomach). It offers indication of the solubility of the substance after it is digested, which is a very important factor for evaluating pharmaceutical effectiveness of the substance. A comparison of the solubility of the salt of the compound of formula III in acidic environment with some of several other rosiglitazone salts is documented in Example 7. […] However, neither the same amount of rosiglitazone hydrochloride prepared according to WO 2000/063205 nor the same amount of pharmaceutically used rosiglitazone maleate of formula II prepared according to WO 94/05659 could be dissolved under the same conditions.
Solubility was determined for crystalline rosiglitazone oxalate of chemical formula III, which was prepared by the procedure according to Example 1. 1 g of crystalline salt of formula III was dissolved under stirring and at 25° C. in 20, 30, 35 a 40 ml of a 0.1M solution of hydrochloric acid. The mixture was stirred at 25° C. for five minutes. When using 20 and 30 ml of the solvent, there was obtained no solution.

[2] = Solubility in water and aqueous hydrochloric acid, stated only in words; type: physicochemical; conditions: crystalline form

Structure (SMILES)	Dissolution of 1 g of salt in 20 ml of solvent ([1]; 20 ml 0.1M hydrochloric acid, 25° C., stirred five minutes)	Dissolution of 1 g of salt in 30 ml of solvent ([1]; 30 ml 0.1M hydrochloric acid, 25° C., stirred five minutes)	Dissolution of 1 g of salt in 35 ml of solvent ([1]; 35 ml 0.1M hydrochloric acid, 25° C., stirred five minutes)	Dissolution of 1 g of salt in 40 ml of solvent ([1]; 40 ml 0.1M hydrochloric acid, 25° C., stirred five minutes)	Solubility in water and in aqueous solutions of hydrochloric acid [2]	Dissolution of the same amount (1 g) at the same conditions ([1]; 20 to 40 ml 0.1M hydrochloric acid, 25° C., stirred five minutes)	Dissolution after extension of the time and another dilution ([1]; extended dissolution time, further dilution with 0.1 M hydrochloric acid)
CN(CCOc1ccc(CC2SC(=O)NC2=O)cc1)c1ccccn1 (stereo not shown) [III]	no solution	no solution	cloudy solution	completely dissolved; also recorded: no cloudy solution	well soluble		
CN(CCOc1ccc(CC2SC(=O)NC2=O)cc1)c1ccccn1 (stereo not shown) [rosiglitazone maleate, reference compound]						neither dissolving	No solutions could be obtained

From patent US20070219248A1, “Salt of Oxalic Acid with -[4[2-(N-Methyl-N-(2-Pyridyl)-Amino)Ethoxy]Benzyl]Thiazolidin-2,4- Dione and a Method of its Preparation and its Use” (priority 2004, published 2007)
